Source: patent US20060183144A1, “Methods and compositions for assessing nucleic acids” (Medical College of Ohio, priority 2005, published 2006)

How the values were obtained:
[1] = system: cytochrome p450 (CYP) IAI gene; test: MC RT-PCR with Celi competitive templates, induction of CYPIAI gene expression; format: cell-based, human; conditions: BEP2D cells incubated with β-napthoflavone (10 μM); control 0.1% DMSO; about the same cDNA loading by GAPDH reference gene
Protocol: In a second set of experiments, multiplex competitive reverse transcriptase polymerase chain reaction (MC RT-PCR) with competitive templates were prepared by the Celi method to evaluate the cytochrome p450 (CYP) IAI gene in β-napthoflavone-exposed BEP2D cells. The induction of CYPIAI gene expression was evaluated using both MC RT-PCR with Celi competitive templates, and Northern analysis. Competitive templates were prepared for both the CYPIAI and GAPDH genes. The primers used to prepare the competitive template for GAPDH were: […]
The PCR amplification conditions were the same as described for experiments using the competitive templates prepared for GAPDH and GSHPx by the Higuchi method except the annealing temperature was 55 degrees centigrade and the amplification was carried out for 38 cycles.
Because the native and competitive templates separate without prior restriction endonuclease digestion, samples were taken directly from the PCR reaction tube and applied to ethidium bromide stained 3% Nusieve, 1% LE agarose gels. It was then possible to quantify the products by taking a negative photograph of the gel using Polaroid 665 positive/negative instant film, subjecting the negative photograph to densitometry. […]

[2] = system: cytochrome p450 IA1 (CYPIAI); test: Northern analysis of CYPIAI gene expression; format: cell-based, human; conditions: BEP2D cells incubated with β-napthoflavone (10 μM); control 0.1% DMSO; 32P-labeled CYPIAI cDNA probe
Protocol: RNA from BEP2D cells incubated for varying times with β-napthoflavone (10 μM) was either electrophoresed on a 1% LE formaldehyde denaturing gel for Northern analysis or MC RT-PCR amplified, as described above. For Northern analysis, following transfer of the RNA to GeneScreen, the filters were hybridized with ^32P-labeled CYPLAI cDNA.

Compound: O=c1cc(-c2ccccc2)oc2ccc3ccccc3c12 [β-napthoflavone]
- band representing the native CYPIAI gene, exposed cells compared to control cells [1]: much more strongly represented
- gene expression of the CYPIAI gene [2]: increase
